Measured values reported in PubChem BioAssay (NCI).
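Following 48 hours of exposure in 96-well plates, responses at five concentrations were used to interpolate endpoints linearly. The concentration for full growth arrest is given as TGI.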

Columns and labels:
Assay in all cases: NCI tumour cell line growth inhibition, 48 h
DMS 114 small cell lung = system: DMS 114 small cell lung
DMS 273 small cell lung = system: DMS 273 small cell lung
HOP-18 NSCLC = system: HOP-18 NSCLC
KM20L2 colon = system: KM20L2 colon
LXFL 529 NSCLC = system: LXFL 529 NSCLC
SNB-78 CNS = system: SNB-78 CNS
XF 498 CNS = system: XF 498 CNS
RXF-631 renal = system: RXF-631 renal
P388 leukemia = system: P388 leukemia
P388/ADR leukemia = system: P388/ADR leukemia
SN12K1 renal = system: SN12K1 renal

Compound	TGI (DMS 114 small cell lung)	TGI (DMS 273 small cell lung)	TGI (HOP-18 NSCLC)	TGI (KM20L2 colon)	TGI (LXFL 529 NSCLC)	TGI (SNB-78 CNS)	TGI (XF 498 CNS)	TGI (RXF-631 renal)	TGI (P388 leukemia)	TGI (P388/ADR leukemia)	TGI (SN12K1 renal)
O=C(Cn1cc(I)c(C(=O)NCC(O)CO)n1)NCC(O)CO (configuration not stated)	> 100 µM	> 100 µM	> 100 µM	> 100 µM	> 100 µM	> 100 µM	> 100 µM	–	–	–	–
COc1ccc(/C=N/NC(=O)NCCNCCO)cc1	> 100 µM	> 100 µM	> 100 µM	> 100 µM	> 100 µM	> 100 µM	–	–	–	–	–
CN(C)c1ccc(/C=C(\C#N)C(=O)c2ccccc2)cc1Br	> 100 µM	> 100 µM	> 100 µM	> 100 µM	> 100 µM	> 100 µM	> 100 µM	> 100 µM	–	–	–
CCOC1=C2N=C(C(CC)c3ccc(F)cc3)N=C2C(=O)c2ccccc21 (configuration not stated)	> 68.4 µM	> 72.1 µM	–	50.7 µM	> 90.3 µM	89.8 µM	40.1 µM	–	–	–	–
C=C1C(=O)OC2C=C(C)CC3C=C(CCC=C(C)CCC12)C(=O)O3 (configuration not stated)	151 µM	145 µM	78.5 µM	119 µM	–	222 µM	–	–	85.1 µM	93.2 µM	123 µM
C#CCN1C(=O)CN2C(Cl)(Cl)C2(c2ccccc2)c2cc(Cl)ccc21 (configuration not stated)	> 100 µM	> 100 µM	> 100 µM	> 100 µM	> 100 µM	–	–	–	–	–	–
CC(C)c1cccc(C(C)C)c1NC(=O)/C(Cc1nc2ccc(Cl)cc2[nH]c1=O)=N\NC(=O)C[N+](C)(C)C	> 100 µM	–	–	> 100 µM	–	–	–	> 100 µM	–	–	–
O=C1C(Nc2ccc(S(=O)(=O)Nc3cnc4ccccc4n3)cc2)=CC(=Nc2ccc(S(=O)(=O)Nc3cnc4ccccc4n3)cc2)c2ccccc21	38 µM	24.4 µM	26.9 µM	32 µM	29.5 µM	47.3 µM	59.2 µM	–	–	–	–
CC(C)C(N=C1CC2CCC1(C(=O)Nc1ccccc1O)C2(C)C)c1ccccc1 (configuration not stated)	> 10 µM	> 10 µM	> 10 µM	> 10 µM	> 10 µM	> 10 µM	> 10 µM	> 10 µM	–	–	–
N#Cc1cc([N+](=O)[O-])ccc1NC(=O)C(=O)Nn1c(=S)[nH]c2ccccc2c1=O	–	–	> 100 µM	> 100 µM	> 100 µM	> 100 µM	> 100 µM	> 100 µM	–	–	–
Cn1cnc([N+](=O)[O-])c1Sc1nnc(-c2ccc(Cl)cc2)n1C	30.5 µM	36 µM	18.1 µM	–	22.3 µM	31.9 µM	–	30.9 µM	–	–	–
COC(=O)C12CCC(CC1=O)C2(C)C (configuration not stated)	> 100 µM	> 100 µM	> 100 µM	> 100 µM	–	–	> 100 µM	–	–	–	–
O=C(C#Cc1ccccc1)Nc1ccccc1CC(c1c[nH]c2ccccc12)c1c[nH]c2ccccc12	–	38.8 µM	–	–	28.4 µM	97.6 µM	70 µM	74.6 µM	–	–	–
O=C1C2Cc3ccccc3CN2C(=O)N1CN1CCCCC1 (configuration not stated)	> 100 µM	> 100 µM	–	> 100 µM	> 100 µM	–	> 100 µM	–	–	–	–
Cc1nc2cc3[nH]c4ccccc4c(=O)c3cc2s1	> 100 µM	> 100 µM	> 100 µM	> 100 µM	> 100 µM	> 100 µM	> 100 µM	–	–	–	–
